Literature values as cited in patent publication US8247571B2, “Pyridinium and thiazolium conjugates including polyethylene glycols and methods of using the same” (Mycosol, Inc., priority 2005, dated 2012).

Test system: roundworms, threadworms, and whipworms
Conditions: reported; U.S. Pat. Nos. 3,075,975 and 3,085,935

CC[n+]1c(/C=C/c2ccc(N3CCCC3)cc2)cccc1/C=C/c1ccc(N2CCCC2)cc1.[I-] [Stilbazium iodide]
anthelmintic effectiveness: effective
